The values that follow are results of earlier work, collected in article PMC8354143, “Cy3-RgIA-5727 Labels and Inhibits α9-Containing nAChRs of Cochlear Hair Cells” (Frontiers in Cellular Neuroscience, 2021).

For data set [1], the system named is voltage-gated calcium channels in the efferent terminals.

As for α-Conotoxin-RgIA, the “antagonism of α9-containing nAChRs” value with α9-containing nAChRs was “specific and potent antagonist of α9-containing nAChRs”.

ω-conotoxin GVIA: the “time course of block of voltage-gated calcium channels” value in data set [1] is 15 to 20 min.
